US20240174618A1, “SUBSTITUTED (2-HETEROARYLOXYPHENYL)SULFONATES, SALTS THEREOF AND THEIR USE AS HERBICIDAL AGENTS” (Bayer Aktiengesellschaft, priority 2021, published 2024)

Legend:
Type in all cases: in vivo
[1] = tested on: Abutilon theophrasti (ABUTH); test: B. Herbicidal post-emergence efficacy, ABUTH; conditions: rated visually after about 3 weeks
Procedure, shortened: (§1)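 Post-emergence foliar spray, at application rates of 1280 g/ha or less, on one-leaf-stage plants 2–3 weeks post-sowing, using aqueous WP or EC suspensions with 0.5% additive at 600 L/ha. Visual percent efficacy relative to untreated plants scored roughly 3 weeks later in the greenhouse.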

[2] = tested on: Veronica persica (VERPE); test: B. Herbicidal post-emergence efficacy, VERPE
Procedure, shortened: as §1

[3] = tested on: Pharbitis purpurea (PHBPU); test: E. Herbicidal post-emergence efficacy, PHBPU
Procedure, shortened: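 Greenhouse weeds were treated post-emergence at the one-leaf stage, 2-3 weeks after sowing in sandy loam, with WP or EC formulations sprayed as aqueous suspension/emulsion plus 0.5% additive at 600 l/ha, at 320 g/ha or less. Efficacy was rated visually after about 3 weeks versus untreated controls (100% = dead, 0% = like control).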

[4] = tested on: Digitaria sanguinalis (DIGSA); test: B. Herbicidal post-emergence efficacy, DIGSA; conditions: rated visually after about 3 weeks
Procedure, shortened: as §1

[5] = tested on: Digitaria sanguinalis (DIGSA); test: A. Herbicidal pre-emergence efficacy, DIGSA; conditions: scored visually after about 3 weeks vs untreated controls
Procedure, shortened: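 Pre-emergence soil-surface spray in sandy loam pots, WP/EC in water plus 0.5% additive, 600 L/ha. Visual % damage rating after about 3 weeks in greenhouse vs. untreated; 0% = control-like, 100% = dead plants. Rates up to 1280 g/ha.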

[6] = tested on: Echinochloa crus-galli (ECHCG); test: C. Herbicidal pre-emergence efficacy, ECHCG; conditions: scored after about 3 weeks
Procedure, shortened: (§2)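 Pre-emergence test: formulated compounds sprayed as aqueous suspension or emulsion with 0.5% additive at 600 l/ha onto soil covering sown seeds, at rates corresponding to 320 g/ha or less. After about 3 weeks in greenhouse, efficacy scored visually as percent versus untreated controls (100% = plants dead).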

[7] = tested on: Polygonum convolvulus (POLCO); test: C. Herbicidal pre-emergence efficacy, POLCO; conditions: scored after about 3 weeks
Procedure, shortened: as §2

[8] = tested on: Kochia scoparia (KCHSC); test: C. Herbicidal pre-emergence efficacy, KCHSC
Procedure, shortened: as §2

| Compound | Post-emergence efficacy against ABUTH in % ([1]; 80 g/ha) [%] | Post-emergence efficacy against ABUTH in % ([1]; 320 g/ha) [%] | Post-emergence efficacy against ABUTH in % ([1]; 1280 g/ha) [%] | Post-emergence efficacy against VERPE ([2]; 80 g/ha) [%] | Post-emergence efficacy against VERPE ([2]; 320 g/ha) [%] | Post-emergence efficacy against VERPE ([2]; 1280 g/ha) [%] | Post-emergence efficacy against PHBPU in % ([3]; application rate 320 g/ha) [%] | Post-emergence efficacy against DIGSA in % ([4]; 320 g/ha) [%] | Post-emergence efficacy against DIGSA in % ([4]; 1280 g/ha) [%] | Pre-emergence efficacy against DIGSA ([5]; 320 g/ha) [%] | Pre-emergence efficacy against DIGSA ([5]; 1280 g/ha) [%] | Pre-emergence efficacy against ECHCG ([6]; 320 g/ha) [%] | Pre-emergence efficacy against POLCO ([7]; 320 g/ha) [%] | Pre-emergence efficacy against KCHSC in % ([8]; application rate 320 g/ha) [%] | Post-emergence efficacy against PHBPU in % ([3]; application rate 80 g/ha) [%] | Pre-emergence efficacy against DIGSA ([5]; 80 g/ha) [%] | Pre-emergence efficacy against ECHCG ([6]; 80 g/ha) [%] | Pre-emergence efficacy against POLCO ([7]; 80 g/ha) [%] | Pre-emergence efficacy against KCHSC in % ([8]; application rate 80 g/ha) [%] |
| --- | --- | --- | --- | --- | --- | --- | --- | --- | --- | --- | --- | --- | --- | --- | --- | --- | --- | --- | --- |
| Cc1cccc(Oc2ncc(Cl)cn2)c1OS(=O)(=O)CC1CC(F)(F)C1 [Example I-74] | 100 | 100 | 100 | 100 | 100 | 100 | 90 | 90 | 100 | 100 | 100 | 100 | 90 | 90 | – | – | – | – | – |
| O=S(=O)(CCC1CC1)Oc1c(F)cccc1Oc1ncc(Cl)cn1 [Example I-55] | 90 | 90 | 90 | 90 | 90 | 90 | 100 | 90 | 90 | 100 | 100 | 100 | 90 | 100 | 90 | 100 | 90 | 90 | 80 |
| O=S(=O)(CCCC(F)(F)F)Oc1c(F)cccc1Oc1ncc(Cl)cn1 [Example I-49] | 90 | 90 | 90 | – | – | 90 | 100 | 90 | 90 | 90 | 90 | 100 | 100 | 100 | 100 | 90 | 100 | 100 | 100 |
| C=CCCS(=O)(=O)Oc1c(F)cccc1Oc1ncc(Cl)cn1 [Example I-50] | – | 90 | 90 | – | 90 | 90 | 90 | – | 90 | 90 | 100 | 100 | 90 | 100 | 90 | 90 | 80 | 80 | 90 |
| O=S(=O)(CCCC(F)(F)C(F)(F)F)Oc1c(F)cccc1Oc1ncc(Cl)cn1 [Example I-68] | 100 | 100 | 100 | 100 | 100 | 100 | 90 | 90 | 100 | 90 | 100 | 90 | 90 | 100 | 80 | – | – | 90 | 100 |
| O=S(=O)(CCC(F)(F)F)Oc1c(Cl)cccc1Oc1ncc(Br)cn1 [Example I-32] | 100 | 100 | 100 | 100 | 100 | 100 | 80 | 90 | 100 | 90 | 90 | 90 | 100 | 100 | 80 | – | – | – | 100 |
| O=S(=O)(CC1CC(F)(F)C1)Oc1c(F)cccc1Oc1ncc(Cl)cn1 [Example I-53] | 90 | 90 | 90 | 90 | 90 | 90 | 100 | 90 | 90 | 100 | 100 | 100 | 100 | 100 | 100 | 100 | 100 | 100 | 100 |
| O=S(=O)(CCCC(F)(F)F)Oc1c(Cl)cccc1Oc1ncc(Br)cn1 [Example I-34] | 90 | 100 | 100 | 100 | 100 | 100 | 100 | – | 100 | – | 90 | 90 | 100 | 100 | 80 | – | – | – | 90 |
| O=S(=O)(CCCC(F)F)Oc1c(F)cccc1Oc1ncc(Cl)cn1 [Example I-56] | 90 | 90 | 90 | 90 | 90 | 90 | 100 | 90 | 90 | 100 | 100 | 100 | 100 | 100 | 100 | 100 | 100 | 100 | 100 |
